Assay results from the supplement of paper PMC10307832.

Legend:
Assay in all cases: relative viability (nuclei count vs DMSO), 5 days (fraction); higher = more cells survive
Vemurafenib + Linsitinib = compound: CCCS(=O)(=O)Nc1ccc(F)c(C(=O)c2c[nH]c3ncc(-c4ccc(Cl)cc4)cc23)c1F [Vemurafenib] + C[C@]1(O)C[C@@H](c2nc(-c3ccc4ccc(-c5ccccc5)nc4c3)c3c(N)nccn32)C1 [Linsitinib] (partner 1 µM)
Summary of the method: (§1)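 Medians of duplicate plates are given as relative viability. That measure is the nuclei count in treated wells divided by the count in vehicle wells. Counts were taken on 4× images of lung cancer cell lines in 1536-well plates, 5 days after pin-tool dosing the day after seeding with one drug alone or a fixed anchor-drug dose plus five library-drug doses (not always all listed) in √10 steps.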

OSI-027 + Decitabine = compound: COc1cccc2cc(-c3nc([C@H]4CC[C@H](C(=O)O)CC4)n4ncnc(N)c34)[nH]c12 [OSI-027] + Nc1ncn([C@H]2C[C@H](O)[C@@H](CO)O2)c(=O)n1 [Decitabine] (partner 2 µM)
Summary of the method: as §1

Alpelisib + Dasatinib = compound: Cc1nc(NC(=O)N2CCC[C@H]2C(N)=O)sc1-c1ccnc(C(C)(C)C(F)(F)F)c1 [Alpelisib] + Cc1nc(Nc2ncc(C(=O)Nc3c(C)cccc3Cl)s2)cc(N2CCN(CCO)CC2)n1 [Dasatinib] (partner 0.075 µM)
Summary of the method: as §1

OSI-027 + Linsitinib = compound: COc1cccc2cc(-c3nc([C@H]4CC[C@H](C(=O)O)CC4)n4ncnc(N)c34)[nH]c12 [OSI-027] + C[C@]1(O)C[C@@H](c2nc(-c3ccc4ccc(-c5ccccc5)nc4c3)c3c(N)nccn32)C1 [Linsitinib] (partner 1 µM)
Summary of the method: as §1

| Cell Line | relative viability (Vemurafenib + Linsitinib; first compound 0.03162 µM) | relative viability (Vemurafenib + Linsitinib; first compound 0.1 µM) | relative viability (Vemurafenib + Linsitinib; first compound 0.3162 µM) | relative viability (Vemurafenib + Linsitinib; first compound 1 µM) | relative viability (OSI-027 + Decitabine; first compound 0.01 µM) | relative viability (OSI-027 + Decitabine; first compound 0.03162 µM) | relative viability (OSI-027 + Decitabine; first compound 0.1 µM) | relative viability (OSI-027 + Decitabine; first compound 0.3162 µM) | relative viability (OSI-027 + Decitabine; first compound 1 µM) | relative viability (Alpelisib + Dasatinib; first compound 0.04 µM) | relative viability (Alpelisib + Dasatinib; first compound 0.1265 µM) | relative viability (Alpelisib + Dasatinib; first compound 0.4 µM) | relative viability (Alpelisib + Dasatinib; first compound 1.265 µM) | relative viability (Alpelisib + Dasatinib; first compound 4 µM) | relative viability (OSI-027 + Linsitinib; first compound 0.01 µM) | relative viability (OSI-027 + Linsitinib; first compound 0.03162 µM) | relative viability (OSI-027 + Linsitinib; first compound 0.1 µM) | relative viability (OSI-027 + Linsitinib; first compound 0.3162 µM) | relative viability (OSI-027 + Linsitinib; first compound 1 µM) |
| --- | --- | --- | --- | --- | --- | --- | --- | --- | --- | --- | --- | --- | --- | --- | --- | --- | --- | --- | --- |
| HCC-15 | 0.855 | 0.743 | 0.964 | 0.824 | 0.571 | 0.642 | 0.57 | 0.537 | 0.372 | 0.559 | 0.587 | 0.56 | 0.379 | 0.31 | 0.881 | 0.857 | 0.795 | 0.662 | 0.463 |
| NCI-H358 | 0.686 | – | 1 | 0.79 | 0.191 | 0.182 | 0.199 | 0.232 | 0.178 | 0.157 | 0.176 | 0.164 | 0.112 | 0.121 | 0.676 | 0.503 | 0.671 | 0.376 | 0.366 |
| COR-L23 | 0.774 | 0.733 | 0.789 | 1.01 | 0.482 | 0.474 | 0.379 | 0.372 | 0.236 | 0.436 | 0.392 | 0.535 | 0.278 | 0.292 | 1.02 | 0.837 | 0.792 | 0.549 | 0.181 |
| NCI-H2009 | 1.19 | 1.03 | 1.09 | 1.06 | 0.418 | 0.354 | 0.339 | 0.36 | 0.295 | 0.309 | 0.281 | 0.353 | 0.223 | 0.198 | 1.25 | 1.2 | 1.16 | 1.03 | 0.765 |
| NCI-H1755 | 0.946 | 0.889 | 0.978 | 0.91 | 0.75 | 0.716 | 0.702 | 0.654 | 0.503 | 0.382 | 0.415 | 0.418 | 0.327 | 0.228 | 0.976 | 1.05 | 1.02 | 0.885 | 0.392 |
| LCLC-97TM1 | 0.181 | 0.212 | 0.175 | 0.157 | 0.256 | 0.23 | 0.195 | 0.174 | 0.22 | 0.843 | 0.75 | 0.855 | 0.641 | 0.566 | 0.19 | 0.182 | 0.139 | 0.117 | 0.123 |
| NCI-H2085 | 0.862 | 0.626 | 0.797 | 1.01 | 0.545 | 0.562 | 0.611 | 0.52 | 0.446 | 0.275 | 0.225 | 0.265 | 0.263 | 0.215 | 0.884 | 0.847 | 0.82 | 0.753 | 0.422 |
| NCI-H647 | 1.08 | 0.971 | 1.03 | 1.14 | 0.385 | 0.543 | 0.397 | 0.248 | 0.211 | 0.228 | 0.163 | 0.214 | 0.0992 | 0.123 | 1.29 | 1.2 | 0.944 | 0.855 | 0.496 |
| BEN | 0.913 | 0.921 | 0.683 | 0.724 | 0.609 | 0.707 | 0.596 | 0.513 | 0.483 | 0.318 | 0.23 | 0.38 | 0.333 | 0.29 | 0.923 | 0.613 | 0.627 | 0.384 | 0.271 |
| NCI-H1944 | 1.17 | 0.872 | 1.33 | 1.15 | 0.427 | 0.46 | 0.405 | 0.443 | 0.303 | 0.208 | 0.217 | 0.203 | 0.163 | 0.144 | 1.11 | 1.14 | 1.05 | 0.771 | 0.836 |
| NCI-H1395 | 0.948 | 1.02 | – | 1.13 | 0.696 | 0.742 | 0.684 | 0.645 | 0.532 | 0.461 | 0.376 | 0.457 | 0.356 | 0.394 | 1.18 | 1.16 | 0.924 | 0.857 | 0.77 |
| 201T | 0.994 | 0.969 | 1.06 | 0.989 | 0.885 | 0.832 | 0.842 | 0.887 | 0.8 | 0.561 | 0.487 | 0.541 | 0.434 | 0.359 | 0.932 | 0.974 | 1.01 | 0.833 | 0.936 |
| NCI-H2405 | 0.952 | 0.776 | – | 0.983 | 0.688 | 0.74 | 0.709 | 0.634 | 0.451 | 0.208 | 0.191 | 0.216 | 0.19 | 0.197 | 0.871 | 0.81 | 0.702 | 0.404 | 0.393 |
| RERF-LC-KJ | 0.833 | 0.86 | 0.924 | 0.923 | 0.617 | 0.664 | 0.668 | 0.538 | 0.426 | 0.766 | 0.733 | 0.758 | 0.475 | 0.541 | 0.839 | 0.776 | 0.655 | 0.503 | 0.376 |
| NCI-H596 | 1.07 | 0.918 | 1.12 | 1.06 | 1.1 | 1.08 | 1.1 | 1.03 | 0.82 | 0.564 | 0.67 | 0.578 | 0.337 | 0.385 | 0.981 | 0.978 | 1.03 | 0.779 | 0.483 |
| NCI-H1993 | 0.668 | – | 0.882 | 0.746 | 0.53 | 0.538 | 0.569 | 0.432 | 0.431 | 0.532 | 0.469 | 0.508 | 0.454 | 0.569 | 0.684 | 0.777 | 0.703 | 0.603 | 0.681 |
| EPLC-272H | 1.03 | 0.824 | 1.14 | 1.11 | 0.324 | 0.321 | 0.344 | 0.298 | 0.256 | 0.313 | 0.281 | 0.219 | 0.201 | 0.202 | 1.08 | 1.05 | 1.12 | 0.866 | 0.961 |
| NCI-H1915 | 1.05 | 1 | 1.05 | 1.04 | 0.25 | 0.257 | 0.262 | 0.26 | 0.242 | 0.29 | 0.28 | 0.313 | 0.268 | 0.276 | 1.11 | 1.13 | 1.12 | 1.02 | 0.863 |
| LC-2-ad | 0.801 | 0.755 | 0.873 | 0.749 | 0.827 | 0.842 | 0.779 | 0.735 | 0.578 | 0.596 | 0.448 | 0.63 | 0.23 | 0.225 | 0.847 | 0.751 | 0.803 | 0.694 | 0.291 |
| NCI-H2126 | 0.804 | 0.699 | 0.757 | 0.681 | 0.558 | 0.553 | 0.565 | 0.523 | 0.601 | 0.599 | 0.564 | 0.507 | 0.354 | 0.307 | 0.739 | 0.593 | 0.536 | 0.416 | 0.701 |
| HOP-62 | 0.78 | 1.01 | 0.94 | 0.841 | 0.216 | 0.231 | 0.252 | 0.257 | 0.214 | 0.608 | 0.598 | 0.755 | 0.539 | 0.531 | 0.952 | 1.2 | 1.04 | 0.712 | 0.359 |
| LCLC-103H | 1.09 | 1.04 | 1.06 | 1.18 | 0.748 | 0.732 | 0.707 | 0.598 | 0.783 | 0.45 | 0.442 | 0.468 | 0.418 | 0.359 | 0.994 | 0.968 | 1.07 | 0.906 | 1.05 |
| HARA | 0.942 | – | 0.987 | 0.771 | 0.529 | 0.432 | 0.558 | 0.422 | 0.346 | 0.291 | 0.281 | 0.215 | 0.174 | 0.155 | 0.894 | 0.803 | 0.908 | 0.831 | 0.201 |
| NCI-H2087 | 0.882 | 0.94 | – | 0.868 | 0.268 | 0.228 | 0.24 | 0.214 | 0.16 | 0.959 | 0.883 | 1.12 | 0.691 | 0.56 | 1.03 | 0.845 | 0.819 | 0.632 | 0.29 |
| NCI-H520 | 1.06 | 1.13 | 1.02 | 0.956 | 0.583 | 0.482 | 0.47 | 0.363 | 0.228 | 0.184 | 0.218 | 0.153 | 0.174 | 0.149 | 1.08 | 0.931 | 0.888 | 0.614 | 0.311 |
| HCC-78 | 0.627 | 0.458 | 0.679 | 0.502 | 0.77 | 0.749 | 0.616 | 0.547 | 0.457 | 0.367 | 0.326 | 0.357 | 0.366 | 0.314 | 0.469 | 0.386 | 0.296 | 0.255 | 0.232 |
| COR-L 105 | 1 | – | 1.3 | 1.17 | 0.739 | 0.56 | 0.603 | 0.639 | 0.647 | 0.301 | 0.444 | 0.346 | 0.273 | 0.26 | 1.07 | 0.737 | 0.966 | 0.749 | 0.431 |
| NCI-H1437 | 0.972 | 0.959 | 0.918 | 0.871 | 0.499 | 0.614 | 0.63 | 0.493 | 0.387 | 0.368 | 0.338 | 0.358 | 0.309 | 0.342 | 0.962 | 0.6 | 0.702 | 0.292 | 0.155 |
